# From article PMC6271467, “The Anthraquinone Derivatives from the Fungus Alternaria sp. XZSBG-1 from the Saline Lake in Bange, Tibet, China” (Molecules, 2014)
# Assays:
# Format in all cases: cell-based
# MCF-7/ADR = experiment: Cytotoxicity, MTT assay, MCF-7/ADR; conditions: Homo sapiens, NCI/ADR-RES, 48 h exposure, MCF-7/ADR cells
# Method: (§1) Compounds 1–11 were evaluated for cytotoxic activity against several human cancer cell lines by MTT assay. […] The other compounds show no notable inhibitory activity against any tested cancer cell lines.
# (§2) MCF-7/ADR, HeLa, HCT-116 cell lines were cultured in Dulbeccos’ modification Eagle’s medium (DMEM, Invitrogen, Carlsbad, CA, USA) supplemented with 10% fetal bovine serum (FBS, Hyclone, Logan, UT, USA), 2 mM L-glutamine, 100 μg/mL streptomycin and 100 U/mL penicillin (Invitrogen). The cells were incubated at 37 °C in a humidified atmosphere with 5% CO2.
# (§3) Cells were harvested during logarithmic growth phase and seeded in 96-well plates at a density of 1 × 10^4 cells/mL, and cultured at 37 °C in a humidified incubator (5% CO2) for 24 h, followed by exposure to various concentrations of compounds tested for 48 h. Subsequently 20 μL of MTT (Genview, Houston, TX, USA) solution (5 mg/mL) was added to each well and mixed, the cells were then incubated for an additional 4 h. Culture supernatant was moved, 150 μL of DMSO (Sangon Biotech, Shanghai, China) was added to each well to fully dissolve the MTT-formazan crystals. Cell growth inhibition was determined by measuring the absorbance (Abs) at λ = 570 nm using a microplate reader and calculated according to the following equation: Growth inhibition = (1 − OD of treated cells/OD of control cells) × 100%
# (§4) The half maximal inhibitory concentrations (IC50) were obtained from liner regression analysis of the concentration-response curves plotted for each tested compound [17, 18].
# HCT-116 = experiment: Cytotoxicity, MTT assay, HCT-116; conditions: Homo sapiens, 48 h exposure, HCT-116 cells
# Method: as §1, §2, §3, §4
# HeLa = experiment: Cytotoxicity, MTT assay, HeLa; conditions: Homo sapiens, 48 h exposure, HeLa cells
# Method: as §1, §2, §3, §4
SMILES,IC50 (MCF-7/ADR) [µM],IC50 (HCT-116) [µM],IC50 (HeLa) [µM]
"COc1cc(O)c2c(c1)C(=O)C1=C(C[C@@H](O)[C@@](C)(O)[C@@H]1O)C2=O [Compound 9, altersolanol C]",> 100,3.03 ± 0.05,8.09 ± 0.89
"COc1cc(O)c2c(c1)C(=O)c1cc(C)c(O)cc1C2=O [Compound 11, macrosporin]",> 100,> 100,> 100
"COc1cc(O)c2c(c1)C(=O)C1=C(C2=O)[C@H]([C@H]2C3=C(C(=O)c4cc(OC)cc(O)c4C3=O)[C@H](O)[C@](C)(O)[C@H]2O)[C@H](O)[C@@](C)(O)[C@H]1O (relative stereo) [Compound 2, (1S*,1'S*,2R*,2'R*,3S*,3'S*,4S*,4'S*)-1,1',2,2',3,3',5,5'-octahydroxy-7,7'-dimethoxy-2,2'-dimethyl-1,1',2,2',3,3',4,4'-octahydro-[4,4'-bianthracene]-9,9',10,10'-tetraone]",> 100,> 50,> 50
"COc1cc(O)c2c(c1-c1c(OC)cc(O)c3c1C(=O)C1=C(C3=O)[C@@H](O)[C@H](O)[C@](C)(O)[C@@H]1O)C(=O)C1=C(C2=O)[C@@H](O)[C@H](O)[C@](C)(O)[C@@H]1O [Compound 6, alterporriol D]",> 100,> 100,> 100
"COc1cc(O)c2c(c1)C(=O)c1cc(C)c(O)c(-c3c(OC)cc(O)c4c3C(=O)C3=C(C4=O)[C@H](O)[C@@H](O)[C@@](C)(O)[C@H]3O)c1C2=O [Compound 7, alterporriol N]",> 100,> 100,> 100
"COc1cc(O)c2c(c1-c1c(OC)cc(O)c3c1C(=O)c1cc(C)c(O)cc1C3=O)C(=O)C1=C(C2=O)[C@H](O)[C@@H](O)[C@@](C)(O)[C@H]1O (relative stereo) [Compound 3, (1S*,2R*,3S*,4S*)-1,2,2',3,4,8,8'-heptahydroxy-6,6'-dimethoxy-3,3'-dimethyl-1,2,3,4-tetrahydro-[5,5'-bianthracene]-9,9',10,10'-tetraone]",–,32.4 ± 1.57,> 50
"COc1cc(O)c2c(c1-c1c(OC)cc(O)c3c1C(=O)c1cc(C)c(O)cc1C3=O)C(=O)C1=C(C2=O)[C@@H](O)[C@H](O)[C@](C)(O)[C@H]1O [Compound 8, alterporriol A]",45,> 50,> 50
"COc1cc(O)c2c(c1-c1c(OC)cc(O)c3c1C(=O)c1cc(C)c(O)cc1C3=O)C(=O)C1=C(C2=O)[C@@H](O)[C@@H](O)[C@@](C)(O)[C@H]1O (relative stereo) [Compound 4, (1R*,2R*,3S*,4S*)-1,2,2',3,4,8,8'-heptahydroxy-6,6'-dimethoxy-3,3' dimethyl-1,2,3,4-tetrahydro-5,5'-bianthracene-9,9',10,10'-tetraone]",> 50,> 50,> 100
"COc1cccc2c1C(=O)c1c(O)c3c(c(O)c1C2=O)C[C@@](O)(C(=O)CO)C[C@@H]3O[C@H]1C[C@H](N)[C@@H](O)[C@H](C)O1 [EPI, Epirubicin, reference compound]",2.36,0.96 ± 0.02,0.48 ± 0.03
"COc1cc(O)c2c(c1)C(=O)C1=C(C2=O)[C@H](O)[C@@H](O)[C@@](C)(O)[C@@H]1O [Compound 10, altersolanol A]",> 100,> 100,> 100
"COc1cc2c(c(-c3c(O)c(OC)cc4c3C(=O)C3=C(C4=O)[C@@H](O)[C@H](O)[C@](C)(O)[C@@H]3O)c1O)C(=O)C1=C(C2=O)[C@@H](O)[C@H](O)[C@](C)(O)[C@@H]1O [Compound 5, alterporriol E]",> 100,> 100,> 100
"COc1cc(O)c2c(c1)C(=O)C13OC1(C2=O)[C@H](O)[C@@H](O)[C@@](C)(O)[C@H]3O (relative stereo) [Compound 1, (1R*,2R*,3R*,4R*)-1,2,3,4,8-pentahydroxy-6-methoxy-3-methyl-1,2,3,4-tetrahydro-4a,9a-epoxyanthracene-9,10-dione]",18.5,23.2 ± 2.85,43.7 ± 4.02
